Test results taken from ChEMBL document CHEMBL5236634, “Membrane-Targeting Neolignan-Antimicrobial Peptide Mimic Conjugates to Combat Methicillin-Resistant Staphylococcus aureus (MRSA) Infections” (J Med Chem, 2022).
Values after ≈ are worked out from the molar mass of the structure shown.

Tests used:
[1] = system: Escherichia coli; experiment: Antibacterial activity against Escherichia coli ATCC 25922 assessed as inhibition of bacterial growth incubated for 16 to 20 hrs by CLSI based microdilution method; type: functional; details: time 16-20 hrs
[2] = system: Enterococcus faecalis; experiment: Antibacterial activity against Enterococcus faecalis ATCC 29212 assessed as inhibition of bacterial growth incubated for 16 to 20 hrs by CLSI based microdilution method; type: functional; details: time 16-20 hrs
[3] = system: Staphylococcus aureus; experiment: Antibacterial activity against Staphylococcus aureus ATCC 29213 assessed as inhibition of bacterial growth incubated for 16 to 20 hrs by CLSI based microdilution method; type: functional; details: time 16-20 hrs
[4] = Hemolytic activity in sheep RBC incubated for 1 hr by absorbance based analysis; type: toxicity, cell-based, Ovis aries, Erythrocyte; details: sheep red blood cells
[5] = Selectivity index, ratio of HC50 for hemolytic activity in sheep RBC to MIC for antibacterial activity against Staphylococcus aureus ATCC 29213; type: toxicity; details: sheep red blood cells
[6] = system: Salmonella enterica; experiment: Antibacterial activity against Salmonella enterica H9812 assessed as inhibition of bacterial growth incubated for 16 to 20 hrs by CLSI based microdilution method; type: functional; details: time 16-20 hrs
[7] = system: Micrococcus luteus; experiment: Antibacterial activity against Micrococcus luteus assessed as inhibition of bacterial growth incubated for 16 to 20 hrs by CLSI based microdilution method; type: functional; details: time 16-20 hrs
[8] = system: Salmonella enterica; experiment: Antibacterial activity against Salmonella enterica 8389 assessed as inhibition of bacterial growth incubated for 16 to 20 hrs by CLSI based microdilution method; type: functional; details: time 16-20 hrs

Structure (SMILES) | MIC [1] [µg/mL] | MIC [2] [µg/mL] | MIC [3] [µg/mL] | HC50 at 1 h [4] [µg/mL] | selectivity ratio [5] | MIC [6] [µg/mL] | MIC [7] [µg/mL] | MIC [8] [µg/mL]
C=CCc1cccc(Oc2ccc(C(=O)CC)cc2)c1OCCC[N+](C)(C)CC(=O)NCCCC.[Br-] | 32 | 16 | 8 | 507 | 63.3 | 64 | 32 | 128
C=CCc1cccc(Oc2ccc(C(=O)CC)cc2)c1OCC[N+](C)(C)CC(=O)N(CCC)CCC.[Br-] | 64 | 16 | 8 | 1110 | 138 | 64 | 16 | 32
C=CCc1cccc(Oc2ccc(C(=O)CC)cc2)c1OCCC[N+](C)(C)CC(=O)N(CC)CC.[Br-] | 64 | 32 | 32 | 733 | 22.9 | 32 | 128 | 64
C=CCc1cccc(Oc2ccc(C(=O)CC)cc2)c1OCC[N+](C)(C)CC(=O)N1CCCC1.[Br-] | 128 | 64 | 32 | 543 | 17 | 64 | 32 | > 128
C=CCc1cccc(Oc2ccc(C(=O)CC)cc2)c1O | 128 (≈ 453 µM) | 128 (≈ 453 µM) | 128 (≈ 453 µM) | 438 | 3.4 | > 128 | 64 (≈ 227 µM) | > 128
C=CCc1cccc(Oc2ccc(C(=O)CC)cc2)c1OCCCC[N+](C)(C)CC(=O)N(CCCC)CCCC.[Br-] | 32 | 16 | 2 | 776 | 388 | 64 | 32 | 32
C=CCc1cccc(Oc2ccc(C(=O)CC)cc2)c1OCCC[N+](C)(C)CC(=O)N(CCCC)CCCC.[Br-] | 64 | 16 | 4 | 776 | 194 | 128 | 16 | 128
C=CCc1cccc(Oc2ccc(C(=O)CC)cc2)c1OCCC[N+](C)(C)CC(=O)N1CCCC1.[Br-] | 128 | 32 | 16 | 526 | 32.8 | 64 | 32 | 64
C=CCc1cccc(Oc2ccc(C(=O)CC)cc2)c1OCCCC[N+](C)(C)CC(=O)NCCCCC.[Br-] | 32 | 8 | 4 | 564 | 141 | 128 | 16 | 64
Br.C=CCc1cccc(Oc2ccc(C(=O)CC)cc2)c1OCCSC(=N)N | 64 | 64 | 32 | 789 | 24.6 | 128 | 64 | 64
C=CCc1cccc(Oc2ccc(C(=O)CC)cc2)c1OCCCC[N+](C)(C)CC(=O)N(CCC)CCC.[Br-] | 64 | 32 | 32 | 933 | 29.1 | 128 | 64 | 128
C=CCc1cccc(Oc2ccc(C(=O)CC)cc2)c1OCCC[N+](C)(C)CC(=O)NCC.[Br-] | 64 | 64 | 64 | 501 | 7.8 | > 128 | 64 | > 128
C=CCc1cccc(Oc2ccc(C(=O)CC)cc2)c1OCC[N+](C)(C)CC(=O)NCCC.[Br-] | 128 | 32 | 32 | 634 | 19.8 | 128 | 64 | > 128
C=CCc1cccc(Oc2ccc(C(=O)CC)cc2)c1OCCC[N+](C)(C)CC(=O)NCCC.[Br-] | 64 | 64 | 64 | > 1280 | > 20 | 32 | 64 | 64
C=CCc1cccc(Oc2ccc(C(=O)CC)cc2)c1OCC[N+](C)(C)CC(=O)NCCCCC.[Br-] | 32 | 16 | 8 | 1550 | 194 | 64 | 16 | 64
C=CCc1ccc(O)c(Oc2ccc(C(=O)CC)cc2)c1 | 128 (≈ 453 µM) | 128 (≈ 453 µM) | 128 (≈ 453 µM) | > 640 | > 5 | 128 (≈ 453 µM) | 64 (≈ 227 µM) | > 128
C=CCc1cccc(Oc2ccc(C(=O)CC)cc2)c1OCCCC[N+](C)(C)CC(=O)NCC.[Br-] | 64 | 128 | 64 | 785 | 12.2 | 64 | 128 | 32
